Measurements published in patent publication US20240108734A1, “METHODS FOR TREATING AND AMELIORATING CANCER” (The Regents of the University of California, priority 2021, published 2024).

What was measured:
[1] = test system: ADAR1p150; assay: ADAR1p150 expression in human CD45+ cells from treated BC CML mice; assay type: in vivo; conditions: p=0.016
Description: FIG. 5G. Boxplot depicting Log 2 (cpm) expression of ADAR1p150 by RNA-seq of human CD45^+ cells isolated from vehicle (red), mismatch control (blue) and imetelstat (green) treated BC CML mouse cells. The p-values from Student's t-tests are shown (Student's t-test: vehicle: p=0.337, imetelstat tx: p=0.016).

[2] = biological target: T1, telomerase (Homo sapiens, UniProt O14746); assay: TRAP telomerase activity assay in BC CML engrafted human CD45+ cells; assay type: in vivo; conditions: imetelstat compared with vehicle, p<0.0002
T1 construct: Cell lysates from 5×10^5 CD34^+ selected cells from BC CML engrafted mice or K562 cells were prepared; endogenous in cells; host or cells: human CD45+ / CD34+ cells selected from bone marrow or spleen of BC CML engrafted mice
T1 sequence (O14746 whole entry): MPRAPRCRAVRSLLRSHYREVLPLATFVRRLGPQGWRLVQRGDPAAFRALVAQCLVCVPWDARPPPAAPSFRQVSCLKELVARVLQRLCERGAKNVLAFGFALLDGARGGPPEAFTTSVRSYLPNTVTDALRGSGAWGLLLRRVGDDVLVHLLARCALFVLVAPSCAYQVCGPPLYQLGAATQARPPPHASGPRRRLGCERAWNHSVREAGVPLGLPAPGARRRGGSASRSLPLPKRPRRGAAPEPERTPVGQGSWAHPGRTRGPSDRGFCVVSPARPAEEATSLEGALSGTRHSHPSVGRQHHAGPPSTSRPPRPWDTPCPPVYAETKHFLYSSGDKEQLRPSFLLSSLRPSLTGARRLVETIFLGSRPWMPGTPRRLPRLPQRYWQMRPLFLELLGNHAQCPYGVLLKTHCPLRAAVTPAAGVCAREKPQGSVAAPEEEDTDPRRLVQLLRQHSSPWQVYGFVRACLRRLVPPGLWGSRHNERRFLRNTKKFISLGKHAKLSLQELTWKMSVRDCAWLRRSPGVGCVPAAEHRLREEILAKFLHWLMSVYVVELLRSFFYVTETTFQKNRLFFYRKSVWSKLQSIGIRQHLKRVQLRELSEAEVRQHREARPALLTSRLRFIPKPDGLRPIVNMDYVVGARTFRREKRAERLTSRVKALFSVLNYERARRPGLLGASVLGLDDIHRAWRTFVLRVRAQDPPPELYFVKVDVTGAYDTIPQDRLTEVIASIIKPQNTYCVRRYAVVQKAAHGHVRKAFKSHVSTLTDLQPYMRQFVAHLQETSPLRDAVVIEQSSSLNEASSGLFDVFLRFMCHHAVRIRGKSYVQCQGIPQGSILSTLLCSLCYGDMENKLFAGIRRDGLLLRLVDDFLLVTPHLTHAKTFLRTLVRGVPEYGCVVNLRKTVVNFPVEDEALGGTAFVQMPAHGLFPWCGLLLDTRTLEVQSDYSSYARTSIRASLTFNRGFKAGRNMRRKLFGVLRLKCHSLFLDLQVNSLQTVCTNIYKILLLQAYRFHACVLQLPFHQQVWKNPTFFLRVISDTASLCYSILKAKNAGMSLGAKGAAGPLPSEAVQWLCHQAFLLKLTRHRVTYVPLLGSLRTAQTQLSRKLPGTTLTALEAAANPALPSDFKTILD
T1 sequence (O60832 whole entry partner): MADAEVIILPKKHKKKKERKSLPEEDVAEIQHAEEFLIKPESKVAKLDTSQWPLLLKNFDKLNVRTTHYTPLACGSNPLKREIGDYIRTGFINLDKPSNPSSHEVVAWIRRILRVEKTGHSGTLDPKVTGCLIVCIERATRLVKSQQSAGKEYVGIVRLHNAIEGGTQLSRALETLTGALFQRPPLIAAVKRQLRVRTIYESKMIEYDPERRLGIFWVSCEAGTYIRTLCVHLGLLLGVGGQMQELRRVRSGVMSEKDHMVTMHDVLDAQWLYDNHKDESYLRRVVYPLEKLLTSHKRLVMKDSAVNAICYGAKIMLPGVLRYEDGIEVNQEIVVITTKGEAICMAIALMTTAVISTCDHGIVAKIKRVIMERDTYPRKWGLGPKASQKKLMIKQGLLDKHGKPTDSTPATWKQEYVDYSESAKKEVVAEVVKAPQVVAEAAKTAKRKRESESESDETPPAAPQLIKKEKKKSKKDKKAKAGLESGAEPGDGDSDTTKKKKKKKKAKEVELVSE
T1 sequence (Q9NX24 whole entry partner): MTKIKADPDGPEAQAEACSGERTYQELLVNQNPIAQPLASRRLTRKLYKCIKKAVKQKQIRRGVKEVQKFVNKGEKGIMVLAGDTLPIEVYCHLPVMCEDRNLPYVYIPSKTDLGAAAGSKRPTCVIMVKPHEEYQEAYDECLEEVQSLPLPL
T1 sequence (Q9NPE3 whole entry partner): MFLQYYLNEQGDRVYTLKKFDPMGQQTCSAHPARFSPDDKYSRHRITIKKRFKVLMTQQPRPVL
T1 sequence (Q9NY12 whole entry partner): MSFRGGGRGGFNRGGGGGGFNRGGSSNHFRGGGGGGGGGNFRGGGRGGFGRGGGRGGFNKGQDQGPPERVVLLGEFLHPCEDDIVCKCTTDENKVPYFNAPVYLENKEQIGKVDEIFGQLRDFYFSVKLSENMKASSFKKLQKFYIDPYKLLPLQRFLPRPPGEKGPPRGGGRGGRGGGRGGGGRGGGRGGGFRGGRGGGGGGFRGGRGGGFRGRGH
T1 sequence (Q9BUR4 whole entry partner): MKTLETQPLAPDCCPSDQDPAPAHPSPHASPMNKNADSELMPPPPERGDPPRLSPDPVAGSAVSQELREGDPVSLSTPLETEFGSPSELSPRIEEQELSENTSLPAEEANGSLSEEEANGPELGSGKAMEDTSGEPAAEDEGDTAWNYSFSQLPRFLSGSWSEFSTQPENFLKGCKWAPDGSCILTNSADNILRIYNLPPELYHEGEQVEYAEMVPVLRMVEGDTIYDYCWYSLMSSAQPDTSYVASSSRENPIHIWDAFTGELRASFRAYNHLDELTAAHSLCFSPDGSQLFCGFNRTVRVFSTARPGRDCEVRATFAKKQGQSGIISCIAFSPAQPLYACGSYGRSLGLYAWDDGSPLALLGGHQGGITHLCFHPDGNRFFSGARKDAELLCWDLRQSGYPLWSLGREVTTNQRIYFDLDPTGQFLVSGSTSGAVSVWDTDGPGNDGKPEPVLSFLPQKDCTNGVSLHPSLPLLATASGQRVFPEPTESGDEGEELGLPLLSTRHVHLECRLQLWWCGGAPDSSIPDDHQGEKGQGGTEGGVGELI
Procedure: Telomere length was determined using the Telomere PNA Kit/FITC for Flow Cytometry (Dako, Cat #K5327) with a MACSQuant10 and analyzed with FlowJo software. The Relative Telomere Length (RTL) was calculated by dividing the mean fluorescence intensity (MFI) of the test sample G0/G1 population by the MFI of the normal peripheral blood reference G0/G1 population using the Cycletest™ Plus DNA Kit (BD, Cat #340242). Telomerase activity was determined using the TRAPeze Kit RT Telomerase Detection Kit (Millipore, Catalog No. S7710).
Samples were selected from engrafted mouse bone marrow or spleen with human CD45+ immunomagnetic beads (Miltenyi). Telomere length was determined by using the Telomere PNA Kit/FITC for Flow Cytometry (Dako, Cat #K5327). Samples were run on the MACSQuant10 and analyzed with FlowJo software. The Relative Telomere Length (RTL) was calculated. The 1301 cell line was utilized as control cells. The DNA index was determined with the (BD Cycletest™ Plus DNA Kit, Cat #340242). […] Telomerase activity was determined by using TRAPeze Kit RT Telomerase Detection Kit (Millipore, Catalog No. S7710). […]
FIG. 5D. Telomerase activity in BC CML engrafted human CD45^+ cells, as measured by TRAP assay, in vehicle (red), mismatch control (blue) and imetelstat (green) treated BC CML mice.

[3] = test system: MF CD34+ cells (pre-LSC); assay: SL/M2 stromal co-culture, clonogenic survival and self-renewal (replating) assays, myelofibrosis; assay type: cell-based, human; conditions: imetelstat only (5 uM in b222), compared with normal bone marrow; for self-renewal capacity (replating) of MF CD34+ cells (pre-LSC): p<0.001; for survival of MF CD34+ cells (pre-LSC): p<0.01
Description: Lentiviral human wild-type and mutant ADAR1^E912A (pCDH-EF1-T2A-copGFP) and shRNA targeting ADAR1 were produced according to published protocols^27,37. In Vitro MPN-SPC and LSC Survival and Self-Renewal Assays with Imetelstat To assess MPN progenitor and LSC survival and self-renewal in vitro, human primary CD34^+ cells selected from BC CML (n=5), MF (n=9) or age matched normal bone marrow (a-NBM, n=4) were co-cultured with SL/M2 stromal cells for 7-14 days, and then treated with imetelstat alone or combined with dasatinib for BC CML or Pacritinib for MF. Colony forming and replating assays were performed as previously described^32.
To assess MPN progenitor and LSC survival and self-renewal in vitro, human primary CD34^+ cells selected from BC CML (n=5), MF (n=9) or age matched normal bone marrow (a-NBM, n=4) were co-cultured with SL/M2 stromal cells for 7-14 days, and then treated with Imetelstat alone or combined with dasatinib for BC CML or Pacritinib for MF. Colony forming and replating assays were performed as previously described^32,33.
FIG. 3A. A schematic illustration of SL/M2 stromal co-cultures established to quantify in vitro MPN-SPC and LSC survival and self-renewal. Human primary CD34^+ cells selected from BC CML (n=5), MF (n=9) or age matched normal bone marrow (a-NBM, n=4) were co-cultured with SL/M2 stromal cells for 7-14 days. While BC CML stromal co-cultures were treated with increasing doses of imetelstat with or without dasatinib, MF stromal co-cultures were treated with imetelast with or without pacritinib.
FIG. 3D. Imetelstat was used at concentrations ranging from 1 to 10 μM to treat aged normal bone marrow (aNBM, n=4, dark blue) compared with myelofibrosis (MF, light blue, n=9) in stromal co-cultures followed by clonogenic survival (upper panel) and self-renewal (lower panel) assays (**p<0.01, ***p<0.001).
FIG. 3E. Imetelstat was used at concentrations ranging from 1 to 10 μM alone or in combination with pacritinib (5 nM) to treat aged normal bone marrow (a-NBM, n=4, blue) compared with MF (green, n=9) in stromal co-cultures followed by clonogenic survival (upper panel) and self-renewal (lower panel) assays.

imetelstat
ADAR1p150 expression [1]: significantly reduced | telomerase activity by TRAP assay [2]: reduction | self-renewal capacity (replating) of MF CD34+ cells (pre-LSC) [3]: decrease | self-renewal capacity (replating) of MF CD34+ cells (pre-LSC) ([3]; listed as Imetelstat): significantly inhibited | survival of MF CD34+ cells (pre-LSC) [3]: decrease | survival of MF CD34+ cells (pre-LSC) ([3]; listed as Imetelstat): significantly inhibited
